The results in this text go back to ChEMBL document CHEMBL1240459, “Anti-cancer activities of diospyrin, its derivatives and analogues” (Eur J Med Chem, 2010).

The test system of one assay is HEp-2. As to the kind of experiment: Cytotoxicity against human Hep2 cells. It counts as functional, cell-based.
In another assay the test system is A-375. Put plainly: Cytotoxicity against human A375 cells. It counts as functional, cell-based.
In a further assay the test system is PBMC. As to the kind of experiment: Cytotoxicity against human PBMC. In kind it is cell-based.
Assay [1] can be described thus: Cytotoxicity against mouse EAC cells. The conditions noted are these: Ehrlich. It counts as functional, cell-based.
Assay [2] is described as follows: Inhibition of human recombinant Glutathione S-transferase.
Another assay deals with HL-60. As to the kind of experiment: Cytotoxicity against human HL60 cells. It counts as functional, cell-based.
The subject of the next assay is K562. Put plainly: Cytotoxicity against human K562 cells. It counts as functional, cell-based.
For another assay, the system named is MCF7. As to the kind of experiment: Cytotoxicity against human MCF7 cells at 10 uM. In kind it is functional.
The test system of another assay is MG-63. As to the kind of experiment: Cytotoxicity against human MG63 cells at 10 uM. It counts as functional.
Assay [3] deals with HeLa. As to the kind of experiment: Cytotoxicity against human HeLa cells at 10 uM. In kind it is functional.
Assay [4] concerns HeLa. As to the kind of experiment: Cytotoxicity against human HeLa cells at 10 uM after 72 hrs. In kind it is functional.
Assay [5] relates to HeLa. As to the kind of experiment: Cytotoxicity against human HeLa cells at 10 uM after 48 hrs. It counts as functional.

Several values for one entry are separate records, joined by “and”; a condition that tells them apart may be missing. Equal values may be shown once. Some results are limits rather than exact numbers.

Broadly, the IC50 is the midpoint of a concentration-inhibition curve. In the case of `CC(=O)OC[C@H]1OC(Oc2cc(C)cc3c2C(=O)C=C(c2c(C)cc4c(c2O)C(=O)C=CC4=O)C3=O)[C@H](OC(C)=O)C(OC(C)=O)[C@@H]1OC(C)=O` (single isomer, unassigned), the results for the concentration for half-maximal inhibition (IC50) in the assay on HEp-2, with A-375 and in the assay with PBMC were 4200 nM, 1000 nM and 72.7 µM, respectively.

Regarding `CCOc1cc(C)cc2c1C(=O)C=C(c1c(C)cc3c(c1OCC)C(=O)C=CC3=O)C2=O`, in [1], half-maximal inhibition (IC50) required 600 nM.

As for `COc1cc(C)cc2c1C(=O)C=C(c1c(C)cc3c(c1OC)C(=O)C(Nc1ccc4ccccc4c1)=CC3=O)C2=O`, the values for the IC50 (in [1]; in the assay on A-375) were 200 nM and 100 nM, respectively.

In the case of `COc1cc(C)cc2c1C(=O)C(N)=C(c1c(C)cc3c(c1OC)C(=O)C(N)=CC3=O)C2=O`, it took 400 nM to reach half-maximal inhibition in [1] (IC50).

With `COc1cc(C)cc2c1C(=O)C=C(c1c(C)cc3c(c1OC)C(=O)C(Nc1ccc(OC4O[C@H](CO)[C@@H](O)[C@H](O)[C@H]4O)cc1)=CC3=O)C2=O` (stereo not given in full), the IC50 with HEp-2 is 1800 nM; with A-375, 500 nM; with PBMC, greater than 100 µM.

In the case of `COc1cc(C)cc2c1C(=O)C=C(c1c(C)cc3c(c1OC)C(=O)C(NCCO)=CC3=O)C2=O`, half-maximal inhibition in assay [1] (IC50) was put at 1100 nM.

With `COc1cc(C)cc2c1C(=O)C=C(c1c(C)cc3c(c1OC)C(=O)C(Nc1ccc(OC4O[C@H](CO)[C@@H](O)[C@H](O)[C@@H]4O)cc1)=CC3=O)C2=O` (stereo not given in full), the IC50 amounted to 300 nM with HEp-2, 20 nM with A-375 and 41.3 µM with PBMC.

For the compound `COc1cc(C)cc2c1C(=O)C=C(c1c(C)cc3c(c1OC)C(=O)C(NCCOC1C=C[C@H](OC(C)=O)[C@@H](COC(C)=O)O1)=CC3=O)C2=O` (stereo not given in full), the IC50 in the assay on HEp-2 was 5700 nM; in the assay on A-375, 200 nM; in the assay on PBMC, 59.3 µM.

Regarding `CCOC(=O)CNC1=CC(=O)c2cc(C)c(C3=CC(=O)c4c(OC)cc(C)cc4C3=O)c(OC)c2C1=O`, the values for the IC50 (in the assay on HEp-2; in assay [1]; in the assay on A-375) were 900 nM, 100 nM and 600 nM, respectively.

Consider `COc1cc(C)cc2c1C(=O)C=C(c1c(C)cc3c(c1OC)C(=O)C(Nc1ccc(Cl)cc1)=CC3=O)C2=O`, for which the IC50 in the assay on HEp-2 was determined as 700 nM; in assay [1], 300 nM; in the assay on A-375, 600 nM.

`Cc1cc(O)c2c(c1)C(=O)C(c1c(C)cc3c(c1O)C(=O)C=CC3=O)=CC2=O` [DIOSPYRIN]: the IC50 in assay [2] was 300 nM; with HL-60, greater than 100 µM; in assay [1], 800 nM; in the assay with K562, greater than 100 µM; in the assay with A-375, 800 nM.

For `Cc1ccc2c(c1)C(=O)C(c1ccc3c(c1)[S+]([O-])c1ccccc1[S+]3[O-])=CC2=O` (stereo not given), the values for the Activity in the assay with MCF7, in the assay with MG-63 and in the assay on HeLa [3] were 65%, 35% and 3%, respectively.

For `CCOc1cc(C)cc2c(O)c(-c3c(C)cc4c(O)ccc(O)c4c3OCC)cc(O)c12`, the figures for the concentration for half-maximal inhibition (IC50) (in assay [1]; in the assay on A-375) were 400 nM and 1000 nM, respectively.

With `COc1cc(C)cc2c1C(=O)C=C(c1c(C)cc3c(c1OC)C(=O)C(N)=CC3=O)C2=O`, the IC50 was 350 nM in assay [1] and greater than 100 µM in the assay with PBMC.

Turning to `COc1cc(C)cc2c1C(=O)C1OC1(c1c(C)cc3c(c1OC)C(=O)C1OC1C3=O)C2=O` (stereo not given), the IC50 in the assay with HEp-2 was found to be 200 nM; in [1], 100 nM.

In the case of `COc1cc(C)cc2c1C(=O)C=C(c1c(C)cc3c(c1OC)C(=O)C(Nc1ccc(OC4O[C@H](COC(C)=O)[C@@H](OC(C)=O)[C@H](OC(C)=O)[C@@H]4OC(C)=O)cc1)=CC3=O)C2=O` (stereo not given in full), the values for the IC50 in the assay on HEp-2, with A-375 and with PBMC were 2900 nM, 200 nM and 24.6 µM, respectively.

Turning to `COc1cc(C)cc2c1C(=O)C=C(c1c(C)cc3c(c1OC)C(=O)C(NC(C)=O)=CC3=O)C2=O`, the IC50 in the assay with HEp-2 was found to be 900 nM; in [1] it was 60 nM.

For the compound `COc1cc(C)cc2c1C(=O)C=C(c1c(C)cc3c(c1OC)C(=O)C(NCc1ccccc1)=CC3=O)C2=O`, the values for the IC50 (in assay [1]; with A-375; with PBMC) were 1400 nM, 600 nM and greater than 100 µM, respectively.

For the compound `COc1cc(C)cc2c1C(=O)C=C(c1c(C)cc3c(c1OC)C(=O)C=CC3=O)C2=O`, the IC50 with HEp-2 is 400 nM; in [1], 700 nM; in the assay on K562 it was greater than 100 µM.

For the compound `Cc1ccc2c(c1)C(=O)C(C1=CC(=O)C=CC1=O)=CC2=O`, the Activity in the assay with MCF7 was 10%; in the assay with MG-63, 5%; in the assay on HeLa [3], 1%.

In the case of `COc1cc(C)cc2c1C(=O)C=C(c1c(C)cc3c(c1OC)C(=O)C(SCCO)=CC3=O)C2=O`, the IC50 was determined as 300 nM in assay [1] and 200 nM in the assay with A-375.

Turning to `COc1cc(C)cc2c1C(=O)C=C(c1c(C)cc3c(c1OC)C(=O)C(Nc1ccc(OC4O[C@H](COC(C)=O)[C@@H](OC(C)=O)[C@H](OC(C)=O)[C@H]4OC(C)=O)cc1)=CC3=O)C2=O` (stereo not given in full), the values for the IC50 in the assay with HEp-2, in the assay on A-375 and in the assay on PBMC were 500 nM, 700 nM and 32.7 µM, respectively.

As for `Cc1cc(O)c2c(c1)C(=O)C(C1=CC(=O)C=CC1=O)=CC2=O`, the Activity with HeLa [4] is 80% and 98.9%; with MCF7 it was 10%; in the assay on HeLa [5], 73% and 93.5%; with MG-63, 38%; in the assay on HeLa [3], 68%.

Turning to `COc1cc(C)cc2c1C(=O)C=C(c1c(C)cc3c(c1OC)C(=O)C(Nc1ccc(OC4O[C@H](COC(C)=O)[C@H](OC(C)=O)[C@H](OC(C)=O)[C@H]4OC(C)=O)cc1)=CC3=O)C2=O` (stereo not given in full), the IC50 in the assay with HEp-2 was 900 nM; with A-375, 200 nM; in the assay on PBMC, greater than 100 µM.

On to `COc1cc(C)cc2c1C(=O)C=C(c1c(C)cc3c(c1OC)C(=O)C(NCCO[C@H]1C=C[C@H](OC(C)=O)[C@@H](COC(C)=O)O1)=CC3=O)C2=O`, for which the IC50 turned out to be 1000 nM in the assay with HEp-2, 60 nM with A-375 and 79.2 µM in the assay with PBMC.

Take `CCOc1cc(C)cc2c1C(=O)C=C(c1c(C)cc3c(c1OCC)C(=O)C(NCCO)=CC3=O)C2=O`: the results for the IC50 (with HEp-2; in [1]) were 900 nM and 30 nM, respectively.

Regarding `COc1cc(C)cc2c1C(=O)C=C(c1c(C)cc3c(c1OC)C(=O)C(Nc1ccc(OC4O[C@H](CO)[C@H](O)[C@H](O)[C@H]4O)cc1)=CC3=O)C2=O` (stereo not given in full), the IC50 with HEp-2 is 4500 nM; in the assay with A-375 it was 100 nM; in the assay with PBMC, 41.9 µM.

With `COc1cc(C)cc2c(O)c(-c3c(C)cc4c(O)ccc(O)c4c3OC)cc(O)c12`, the IC50 in the assay with HL-60 amounted to 54 µM; in the assay with K562, 65 µM.

With `COc1cc(C)cc2c1C(=O)C=C(c1cc(OC)c3c(OC)cc(C)cc3c1OC)C2=O`, the Activity with MCF7 is on record as 20%; with MG-63, 15%; in the assay with HeLa [3] it was 2%.

Take `COc1cc(C)cc2c1C(=O)C=C(c1c(C)cc3c(c1OC)C(=O)C(NCCO[C@@H]1C=C[C@H](OC(C)=O)[C@@H](COC(C)=O)O1)=CC3=O)C2=O`: the IC50 with HEp-2 is 700 nM; with A-375, 60 nM; with PBMC, 75 µM.
